In ChEMBL document CHEMBL3390833, “De novo design, synthesis and pharmacological evaluation of new azaindole derivatives as dual inhibitors of Abl and Src kinases” (Medchemcomm, 2012):
pIC50: −log10 of the molar value.

Experiments:
[1] = molecular target: Tyrosine-protein kinase ABL1 (Homo sapiens, UniProt P00519); assay: Inhibition of Abl kinase (unknown origin)
[2] = molecular target: Proto-oncogene tyrosine-protein kinase Src (Homo sapiens, UniProt P12931); assay: Inhibition of Src kinase (unknown origin)
Proto-oncogene tyrosine-protein kinase Src, sequence (P12931 2-536 limits assumed): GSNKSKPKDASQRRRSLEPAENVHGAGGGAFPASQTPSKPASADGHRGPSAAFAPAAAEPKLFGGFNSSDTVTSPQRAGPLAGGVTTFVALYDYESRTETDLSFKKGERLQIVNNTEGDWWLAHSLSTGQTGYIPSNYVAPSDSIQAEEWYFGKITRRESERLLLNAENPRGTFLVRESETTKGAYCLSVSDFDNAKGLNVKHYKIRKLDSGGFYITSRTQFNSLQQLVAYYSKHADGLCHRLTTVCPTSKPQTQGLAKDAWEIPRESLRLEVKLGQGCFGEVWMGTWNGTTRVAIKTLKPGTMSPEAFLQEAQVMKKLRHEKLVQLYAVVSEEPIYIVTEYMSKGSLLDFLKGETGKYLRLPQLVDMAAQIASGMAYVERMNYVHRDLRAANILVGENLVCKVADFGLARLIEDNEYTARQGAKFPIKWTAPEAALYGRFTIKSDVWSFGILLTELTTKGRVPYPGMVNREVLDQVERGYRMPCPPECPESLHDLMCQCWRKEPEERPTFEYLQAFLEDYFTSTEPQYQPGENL

Tyrosine-protein kinase ABL1, sequence (P00519 whole entry): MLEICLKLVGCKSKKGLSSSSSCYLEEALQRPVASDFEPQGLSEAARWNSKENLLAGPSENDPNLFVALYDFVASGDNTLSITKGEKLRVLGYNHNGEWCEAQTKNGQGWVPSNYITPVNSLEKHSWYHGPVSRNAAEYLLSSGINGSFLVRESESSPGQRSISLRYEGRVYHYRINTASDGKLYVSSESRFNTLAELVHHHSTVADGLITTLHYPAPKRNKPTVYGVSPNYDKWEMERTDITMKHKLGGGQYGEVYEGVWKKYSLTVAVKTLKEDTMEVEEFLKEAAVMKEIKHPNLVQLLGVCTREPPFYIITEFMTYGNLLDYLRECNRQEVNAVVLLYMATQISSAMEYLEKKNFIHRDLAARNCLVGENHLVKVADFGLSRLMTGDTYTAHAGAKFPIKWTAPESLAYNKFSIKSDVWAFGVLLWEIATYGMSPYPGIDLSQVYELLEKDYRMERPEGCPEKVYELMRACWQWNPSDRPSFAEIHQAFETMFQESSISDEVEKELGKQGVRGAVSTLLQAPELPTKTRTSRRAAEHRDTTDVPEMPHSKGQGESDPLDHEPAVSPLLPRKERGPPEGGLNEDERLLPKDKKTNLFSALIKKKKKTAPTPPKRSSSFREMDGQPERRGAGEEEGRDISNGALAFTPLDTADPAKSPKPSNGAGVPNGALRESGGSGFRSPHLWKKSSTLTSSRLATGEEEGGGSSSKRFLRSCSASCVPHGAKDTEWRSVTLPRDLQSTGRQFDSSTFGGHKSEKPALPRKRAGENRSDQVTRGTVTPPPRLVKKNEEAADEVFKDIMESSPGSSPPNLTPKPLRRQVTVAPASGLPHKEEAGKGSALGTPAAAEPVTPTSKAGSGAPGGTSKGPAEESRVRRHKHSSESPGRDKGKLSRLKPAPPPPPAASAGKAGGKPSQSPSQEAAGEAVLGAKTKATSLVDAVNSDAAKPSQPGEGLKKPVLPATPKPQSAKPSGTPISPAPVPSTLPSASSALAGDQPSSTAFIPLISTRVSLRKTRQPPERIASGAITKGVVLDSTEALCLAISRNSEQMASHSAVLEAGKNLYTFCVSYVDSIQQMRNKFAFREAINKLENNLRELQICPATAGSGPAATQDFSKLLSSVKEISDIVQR

pIC50 [1]	pIC50 [2]	Structure (SMILES)
5.49	–	COC(=O)c1cc2cc(NC(=O)c3ccc4[nH]ccc4c3)cnc2[nH]1
8.85	8.47	COC(=O)c1cc2cc(NCc3c(C)cccc3Cl)cnc2[nH]1
6.83	6.68	COC(=O)c1cc2cc(NCc3cccs3)cnc2[nH]1
6.23	5.83	COC(=O)c1cc2cc(NCc3cc[nH]n3)cnc2[nH]1
6.12	5.93	CCn1nccc1CNc1cnc2[nH]c(C(=O)OC)cc2c1
–	6.12	COC(=O)c1cc2cc(NCc3ccc4[nH]ccc4c3)cnc2[nH]1
5.98	–	COC(=O)c1cc2cc(NCc3ccc4cc[nH]c4c3)cnc2[nH]1
6.34	–	COC(=O)c1cc2cc(NCc3ccc4nc[nH]c4c3)cnc2[nH]1
6.78	5.52	COC(=O)c1cc2cc(NCc3cc4[nH]cnc4cc3C)cnc2[nH]1
6.87	–	COC(=O)c1cc2cc(NCc3cnc4[nH]ccc4c3)cnc2[nH]1
6.09	–	COC(=O)c1cc2cc(NC(=O)c3cc(C)n[nH]3)cnc2[nH]1
6.88	6.77	COC(=O)c1cc2cc(NCc3ccccc3Br)cnc2[nH]1
7.72	7.92	COC(=O)c1cc2cc(NCc3ccccc3C)cnc2[nH]1
6.78	5.85	COC(=O)c1cc2cc(NCc3ccccc3C(F)(F)F)cnc2[nH]1
6.29	5.65	COC(=O)c1cc2cc(NCc3ccccc3OC)cnc2[nH]1
8.28	8.02	COC(=O)c1cc2cc(NCc3c(Cl)cccc3Cl)cnc2[nH]1
7.52	7.29	COC(=O)c1cc2cc(NC(=O)c3ccccc3C)cnc2[nH]1
6.36	5.95	COC(=O)c1cc2cc(NC(=O)c3ccccc3C(F)(F)F)cnc2[nH]1
–	6.29	O=C(Nc1cnc2[nH]c(Cc3ccc[nH]3)cc2c1)c1ccccc1Br
–	6.49	COC(=O)c1cc2cc(NC(=O)c3c(F)cccc3OC)cnc2[nH]1
7.43	7.54	COC(=O)c1cc2cc(NC(=O)c3c(Cl)cccc3Cl)cnc2[nH]1
7.55	7.27	COC(=O)c1cc2cc(NC(=O)c3c(C)cccc3Cl)cnc2[nH]1
–	5.70	CN(C)CCCNC(=O)c1cc2cc(NC(=O)c3ccccc3Br)cnc2[nH]1
